Assay results: ChEMBL document CHEMBL1201862, “PubChem BioAssay data set” (2004)
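Step 1: Grow cells in 96-well plates. Step 2: Expose to compound for 48 hours at 5 concentrations. Step 3: Interpolate endpoints linearly; if unreached, use highest concentration. GI50 = concentration required for 50% inhibition of growth.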 Activity calls are given as the source filed them. Rule as the data show it: active = GI50 up to about 1.1 µM and inactive = higher.

Assays:
Test in all cases: inhibition of tumour cell growth, NCI panel, 48 h
SF-295 = test system: SF-295
COLO 205 = test system: COLO 205
786-0 = test system: 786-0
MDA-MB-231 = test system: MDA-MB-231
CCRF-CEM = test system: CCRF-CEM
OVCAR-8 = test system: OVCAR-8
SK-MEL-2 = test system: SK-MEL-2
HL-60 = test system: HL-60
CAKI-1 = test system: CAKI-1
HT-29 = test system: HT-29
Hs-578T = test system: Hs-578T
UO-31 = test system: UO-31
M14 = test system: M14
HOP-62 = test system: HOP-62
BT-549 = test system: BT-549
OVCAR-5 = test system: OVCAR-5
DU-145 = test system: DU-145
Malme-3M = test system: Malme-3M
NCI-H460 = test system: NCI-H460
SW-620 = test system: SW-620

SMILES	GI50 (SF-295)	GI50 (COLO 205)	GI50 (786-0)	GI50 (MDA-MB-231)	GI50 (CCRF-CEM)	GI50 (OVCAR-8)	GI50 (SK-MEL-2)	GI50 (HL-60)	GI50 (CAKI-1)	GI50 (HT-29)	GI50 (Hs-578T)	GI50 (UO-31)	GI50 (M14)	GI50 (HOP-62)	GI50 (BT-549)	GI50 (OVCAR-5)	GI50 (DU-145)	GI50 (Malme-3M)	GI50 (NCI-H460)	GI50 (SW-620)
COC(=O)c1ccc(CCc2cc(O)ccc2O)cc1	21.3 µM (inactive)	23.9 µM (inactive)	5.47 µM (inactive)	10.1 µM (inactive)	0.67 µM (active)	2.85 µM (inactive)	18.8 µM (inactive)	0.959 µM (active)	4.06 µM (inactive)	28.4 µM (inactive)	16.1 µM (inactive)	2.02 µM (inactive)	10.6 µM (inactive)	12.2 µM (inactive)	5.7 µM (inactive)	19.2 µM (inactive)	32.4 µM (inactive)	8.75 µM (inactive)	37 µM (inactive)	6.27 µM (inactive)
COc1ccc(N2C(=O)C3c4[nH]c5ccc(OCc6ccccc6)cc5c4C4CCC(C(C)C)CC4C3C2=O)cc1 (stereo not given)	6.4 µM (inactive)	> 100 µM (inactive)	8.11 µM (inactive)	10.5 µM (inactive)	12.6 µM (inactive)	15.6 µM (inactive)	15.2 µM (inactive)	1.78 µM (inactive)	> 30.7 µM (inactive)	> 100 µM (inactive)	2.29 µM (inactive)	> 57.1 µM (inactive)	> 48.6 µM (inactive)	8.63 µM (inactive)	28.6 µM (inactive)	> 40 µM (inactive)	> 100 µM (inactive)	21 µM (inactive)	13.9 µM (inactive)	> 100 µM (inactive)
CCSC(=O)/C=C1\CN(C(=O)OC(C)(C)C)C1C(=O)OC(C)(C)C (stereo not given)	12.1 µM (inactive)	2.02 µM (inactive)	1.87 µM (inactive)	4.29 µM (inactive)	1.27 µM (inactive)	2.91 µM (inactive)	6.59 µM (inactive)	1.87 µM (inactive)	6.56 µM (inactive)	4.23 µM (inactive)	4.17 µM (inactive)	5.41 µM (inactive)	1.77 µM (inactive)	14.1 µM (inactive)	10.3 µM (inactive)	6.24 µM (inactive)	4.95 µM (inactive)	1.95 µM (inactive)	7.14 µM (inactive)	2.07 µM (inactive)
